Where a SMILES comes first, the peptide text is derived from it. Bridges are numbered along the chain shown (N, C = ends). Where no end group is shown, it is not given here. [ ]: non-standard residue; d: D form. Orn = NCCC[C@H](N)C(=O)O Some results are limits rather than exact numbers.

8 molecules from US6541450B1, “Parathyroid hormone analogues for the treatment of osteoporosis” (National Research Council of Canada, priority 1994, dated 2003) can be followed below.

The target of assay [1] is T1, adenylyl cyclase, ROS 17/2 cells (Rattus norvegicus, UniProt P25961).
T1 sequence (P25961 27-591): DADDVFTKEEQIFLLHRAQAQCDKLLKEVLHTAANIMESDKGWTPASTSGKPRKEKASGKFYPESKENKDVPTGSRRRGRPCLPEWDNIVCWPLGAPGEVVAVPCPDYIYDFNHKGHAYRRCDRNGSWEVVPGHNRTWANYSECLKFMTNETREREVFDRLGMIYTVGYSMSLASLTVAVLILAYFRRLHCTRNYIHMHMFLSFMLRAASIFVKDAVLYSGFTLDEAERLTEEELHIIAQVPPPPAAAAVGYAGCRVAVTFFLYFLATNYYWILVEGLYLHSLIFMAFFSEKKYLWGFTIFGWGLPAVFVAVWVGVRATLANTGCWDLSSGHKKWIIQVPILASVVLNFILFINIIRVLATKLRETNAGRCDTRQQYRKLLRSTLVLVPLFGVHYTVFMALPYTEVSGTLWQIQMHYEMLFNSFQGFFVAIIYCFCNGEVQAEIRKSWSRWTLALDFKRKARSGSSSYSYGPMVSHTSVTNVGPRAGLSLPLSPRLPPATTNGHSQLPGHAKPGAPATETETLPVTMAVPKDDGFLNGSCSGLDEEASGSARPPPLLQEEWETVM
The assay can be described thus: Adenylyl cyclase stimulation, [3H]-cyclic AMP production in ROS 17/2 cells. The following applies: ROS 17/2 cells; concentration for half-maximal increase in AC activity; read-out: Adenylyl Cyclase (EC50). Type of assay: cell-based.

A further assay addresses PTH receptor (rat (ROS 17/2 rat osteosarcoma cell …, UniProt P25961)). The assay can be described thus: cell-based or functional assay.

By EC50 is commonly meant the midpoint of the concentration-response curve. For `CC[C@H](C)[C@H](NC(=O)[C@H](CCC(=O)O)NC(=O)[C@H](CO)NC(=O)[C@@H](NC(=O)[C@@H](N)CO)C(C)C)C(=O)N[C@@H](CCC(N)=O)C(=O)N[C@@H](CC(C)C)C(=O)N[C@@H](CCSC)C(=O)N[C@@H](Cc1c[nH]cn1)C(=O)N[C@@H](CC(N)=O)C(=O)N[C@@H](CC(C)C)C(=O)NCC(=O)N[C@@H](CCCCN)C(=O)N[C@@H](Cc1c[nH]cn1)C(=O)N[C@@H](CC(C)C)C(=O)N[C@@H](CC(N)=O)C(=O)N[C@@H](CO)C(=O)N[C@@H](CCSC)C(=O)N[C@@H](CCC(=O)O)C(=O)N[C@@H](CCCNC(=N)N)C(=O)N[C@H](C(=O)N[C@H]1CCC(=O)NCCCC[C@@H](C(=O)N[C@@H](C)C(=O)N[C@@H](CC(C)C)C(=O)N[C@@H](CCC(N)=O)C(=O)N[C@@H](CC(=O)O)C(=O)N[C@H](C(N)=O)C(C)C)NC(=O)[C@H](CCCNC(=N)N)NC(=O)[C@H](CC(C)C)NC(=O)[C@H](Cc2c[nH]c3ccccc23)NC1=O)C(C)C` [[Ala^27]cyclo(Glu^22—Lys^26)—hPTH—(1-31)-NH2] (H-SVSEIQLMHNLGKHLNSMERVEWLRKALQDV-NH2; lactam 22-26; N-terminus assumed), in assay [1], the EC50 is 9 nM.

For `CC[C@H](C)[C@H](NC(=O)[C@H](CCC(=O)O)NC(=O)[C@H](CO)NC(=O)[C@@H](NC(=O)[C@@H](N)CO)C(C)C)C(=O)N[C@@H](CCC(N)=O)C(=O)N[C@@H](CC(C)C)C(=O)N[C@@H](CCSC)C(=O)N[C@@H](Cc1c[nH]cn1)C(=O)N[C@@H](CC(N)=O)C(=O)N[C@@H](CC(C)C)C(=O)NCC(=O)N[C@@H](CCCCN)C(=O)N[C@@H](Cc1c[nH]cn1)C(=O)N[C@@H](CC(C)C)C(=O)N[C@@H](CC(N)=O)C(=O)N[C@@H](CO)C(=O)N[C@@H](CCSC)C(=O)N[C@@H](CCC(=O)O)C(=O)N[C@@H](CCCNC(=N)N)C(=O)N[C@H](C(=O)N[C@H]1CSSC[C@@H](C(=O)N[C@@H](CC(C)C)C(=O)N[C@@H](CC(C)C)C(=O)N[C@@H](CCC(N)=O)C(=O)N[C@@H](CC(=O)O)C(=O)N[C@H](C(N)=O)C(C)C)NC(=O)[C@H](CCCNC(=N)N)NC(=O)[C@H](CC(C)C)NC(=O)[C@H](Cc2c[nH]c3ccccc23)NC1=O)C(C)C` [[Cys^22, Cys^26, Leu^27]cyclo(Cys^22—Cys^26)—hPTH—(1-31)-NH2] (H-SVSEIQLMHNLGKHLNSMERVCWLRCLLQDV-NH2; disulfide 22-26), the EC50 in assay [1] turned out to be 16 nM.

For the molecule `CC[C@H](C)[C@H](NC(=O)[C@H](CCC(=O)O)NC(=O)[C@H](CO)NC(=O)[C@@H](NC(=O)[C@@H](N)CO)C(C)C)C(=O)N[C@@H](CCC(N)=O)C(=O)N[C@@H](CC(C)C)C(=O)N[C@@H](CCSC)C(=O)N[C@@H](Cc1c[nH]cn1)C(=O)N[C@@H](CC(N)=O)C(=O)N[C@@H](CC(C)C)C(=O)NCC(=O)N[C@@H](CCCCN)C(=O)N[C@@H](Cc1c[nH]cn1)C(=O)N[C@@H](CC(C)C)C(=O)N[C@@H](CC(N)=O)C(=O)N[C@@H](CO)C(=O)N[C@@H](CCSC)C(=O)N[C@@H](CCC(=O)O)C(=O)N[C@@H](CCCNC(=N)N)C(=O)N[C@H](C(=O)N[C@@H](CCC(=O)O)C(=O)N[C@@H](Cc1c[nH]c2ccccc12)C(=O)N[C@@H](CC(C)C)C(=O)N[C@@H](CCCNC(=N)N)C(=O)N[C@H]1CSSC[C@@H](C(=O)N[C@H](C(N)=O)C(C)C)NC(=O)[C@H](CCC(N)=O)NC(=O)[C@H](CC(C)C)NC(=O)[C@H](CC(C)C)NC1=O)C(C)C` [[Cys^26, Cys^30, Leu^27]cyclo(Cys^26—Cys^30)—hPTH—(1-31)-NH2] (H-SVSEIQLMHNLGKHLNSMERVEWLRCLLQCV-NH2; disulfide 26-30), the EC50 in assay [1] was 24 nM.

Turning to `CC[C@H](C)[C@H](NC(=O)[C@H](CCC(=O)O)NC(=O)[C@H](CO)NC(=O)[C@@H](NC(=O)[C@@H](N)CO)C(C)C)C(=O)N[C@@H](CCC(N)=O)C(=O)N[C@@H](CC(C)C)C(=O)N[C@@H](CCSC)C(=O)N[C@@H](Cc1c[nH]cn1)C(=O)N[C@@H](CC(N)=O)C(=O)N[C@@H](CC(C)C)C(=O)NCC(=O)N[C@@H](CCCCN)C(=O)N[C@@H](Cc1c[nH]cn1)C(=O)N[C@@H](CC(C)C)C(=O)N[C@@H](CC(N)=O)C(=O)N[C@@H](CO)C(=O)N[C@@H](CCSC)C(=O)N[C@@H](CCC(=O)O)C(=O)N[C@@H](CCCNC(=N)N)C(=O)N[C@H](C(=O)N[C@H]1CC(=O)NCCC[C@@H](C(=O)N[C@@H](CC(C)C)C(=O)N[C@@H](CC(C)C)C(=O)N[C@@H](CCC(N)=O)C(=O)N[C@@H](CC(=O)O)C(=O)N[C@H](C(N)=O)C(C)C)NC(=O)[C@H](CCCNC(=N)N)NC(=O)[C@H](CC(C)C)NC(=O)[C@H](Cc2c[nH]c3ccccc23)NC1=O)C(C)C` [[Leu^27]cyclo(Asp^22—Orn^26)—hPTH—(1-31)-NH2] (H-SVSEIQLMHNLGKHLNSMERVDWLR[Orn]LLQDV-NH2; lactam 22-26; N-terminus assumed), the EC50 in assay [1] is > 200 nM.

Take SVSEIQLMHNLGKHLNSMERVEWLRKLLQDV-OH (lactam 22-26) [[Leu^27]cyclo(Glu^22-Lys^26)-hPTH-(1-31)-OH]: in the assay with PTH receptor, the “Adenylyl Cyclase (EC50)” value was determined as 7 nM.

B1: [Cys^26, Cys^30, Leu^27]cyclo(Cys^26-Cys^30)-hPTH-(1-31)-NH2 (peptide)
peptide: SVSEIQLMHNLGKHLNSMERVEWLRCLLQCV-NH2
modifications: disulfide 26-30; N-terminus assumed
SMILES: CC[C@H](C)[C@H](NC(=O)[C@H](CCC(=O)O)NC(=O)[C@H](CO)NC(=O)[C@@H](NC(=O)[C@@H](N)CO)C(C)C)C(=O)N[C@@H](CCC(N)=O)C(=O)N[C@@H](CC(C)C)C(=O)N[C@@H](CCSC)C(=O)N[C@@H](Cc1c[nH]cn1)C(=O)N[C@@H](CC(N)=O)C(=O)N[C@@H](CC(C)C)C(=O)NCC(=O)N[C@@H](CCCCN)C(=O)N[C@@H](Cc1c[nH]cn1)C(=O)N[C@@H](CC(C)C)C(=O)N[C@@H](CC(N)=O)C(=O)N[C@@H](CO)C(=O)N[C@@H](CCSC)C(=O)N[C@@H](CCC(=O)O)C(=O)N[C@@H](CCCNC(=N)N)C(=O)N[C@H](C(=O)N[C@@H](CCC(=O)O)C(=O)N[C@@H](Cc1c[nH]c2ccccc12)C(=O)N[C@@H](CC(C)C)C(=O)N[C@@H](CCCNC(=N)N)C(=O)N[C@H]1CSSC[C@@H](C(=O)N[C@H](C(N)=O)C(C)C)NC(=O)[C@H](CCC(N)=O)NC(=O)[C@H](CC(C)C)NC(=O)[C@H](CC(C)C)NC1=O)C(C)C
With B1, in the assay with PTH receptor, the “Adenylyl Cyclase (EC50)” value stood at 24 nM.

B2: [Leu^27]cyclo(Glu^22-Lys^26)-hPTH-(1-34)-OH (peptide)
peptide: SVSEIQLMHNLGKHLNSMERVEWLRKLLQDVHNF-OH
modifications: lactam 22-26; N-terminus assumed
SMILES: CC[C@H](C)[C@H](NC(=O)[C@H](CCC(=O)O)NC(=O)[C@H](CO)NC(=O)[C@@H](NC(=O)[C@@H](N)CO)C(C)C)C(=O)N[C@@H](CCC(N)=O)C(=O)N[C@@H](CC(C)C)C(=O)N[C@@H](CCSC)C(=O)N[C@@H](Cc1c[nH]cn1)C(=O)N[C@@H](CC(N)=O)C(=O)N[C@@H](CC(C)C)C(=O)NCC(=O)N[C@@H](CCCCN)C(=O)N[C@@H](Cc1c[nH]cn1)C(=O)N[C@@H](CC(C)C)C(=O)N[C@@H](CC(N)=O)C(=O)N[C@@H](CO)C(=O)N[C@@H](CCSC)C(=O)N[C@@H](CCC(=O)O)C(=O)N[C@@H](CCCNC(=N)N)C(=O)N[C@H](C(=O)N[C@H]1CCC(=O)NCCCC[C@@H](C(=O)N[C@@H](CC(C)C)C(=O)N[C@@H](CC(C)C)C(=O)N[C@@H](CCC(N)=O)C(=O)N[C@@H](CC(=O)O)C(=O)N[C@H](C(=O)N[C@@H](Cc2c[nH]cn2)C(=O)N[C@@H](CC(N)=O)C(=O)N[C@@H](Cc2ccccc2)C(=O)O)C(C)C)NC(=O)[C@H](CCCNC(=N)N)NC(=O)[C@H](CC(C)C)NC(=O)[C@H](Cc2c[nH]c3ccccc23)NC1=O)C(C)C
On to B2, for which the “Adenylyl Cyclase (EC50)” value in the assay with PTH receptor amounted to 6 nM.

B3: [Leu^27]cyclo(Glu^22-Lys^26)-hPTH-(1-30)-NH2 (peptide)
peptide: SVSEIQLMHNLGKHLNSMERVEWLRKLLQD-NH2
modifications: lactam 22-26; N-terminus assumed
SMILES: CC[C@H](C)[C@H](NC(=O)[C@H](CCC(=O)O)NC(=O)[C@H](CO)NC(=O)[C@@H](NC(=O)[C@@H](N)CO)C(C)C)C(=O)N[C@@H](CCC(N)=O)C(=O)N[C@@H](CC(C)C)C(=O)N[C@@H](CCSC)C(=O)N[C@@H](Cc1c[nH]cn1)C(=O)N[C@@H](CC(N)=O)C(=O)N[C@@H](CC(C)C)C(=O)NCC(=O)N[C@@H](CCCCN)C(=O)N[C@@H](Cc1c[nH]cn1)C(=O)N[C@@H](CC(C)C)C(=O)N[C@@H](CC(N)=O)C(=O)N[C@@H](CO)C(=O)N[C@@H](CCSC)C(=O)N[C@@H](CCC(=O)O)C(=O)N[C@@H](CCCNC(=N)N)C(=O)N[C@H](C(=O)N[C@H]1CCC(=O)NCCCC[C@@H](C(=O)N[C@@H](CC(C)C)C(=O)N[C@@H](CC(C)C)C(=O)N[C@@H](CCC(N)=O)C(=O)N[C@@H](CC(=O)O)C(N)=O)NC(=O)[C@H](CCCNC(=N)N)NC(=O)[C@H](CC(C)C)NC(=O)[C@H](Cc2c[nH]c3ccccc23)NC1=O)C(C)C
For the molecule B3, in the assay with PTH receptor, the “Adenylyl Cyclase (EC50)” value came to 20 nM.
